Experimental data taken from patent US20240342169A1 (BETTA PHARMACEUTICALS CO., LTD, priority 2021, published 2024).

Tests used:
[1] = target: T1, MET(ex14Del) kinase (Homo sapiens, UniProt P08581, DEL963-1009); assay: Kinase inhibitory activity assay (ADP-Glo Kinase Assay Kit); type: biochemical; details: 60 minutes at 25° C., read-out: IC50 (half inhibitory concentration) for MET (ex14Del) kinase
T1 construct: purchased Sinalchem (so in the source)
Description: • MET(ex14Del) kinase(Sinalchem, M52-12PG); • ADP-Glo Kinase Assay Kit(Promega, V9102);
And then serially diluted 9 times with DMSO at a volume ratio of 1:3 to make 10 concentrations of 100× compound working solution, the diluted compound solution was added to a 384-well plate at a volume of 0.1 μL/well. 5 μL enzyme working solution was added to the 384-well plate, centrifuged at 1000 rpm for 1 minute, incubated 15 minutes at 25° C. 5 μL substrate working solution was added to each well to make 10 concentrations of 1× compound working solution by 3-fold serial dilutions, in which the maximum concentration of the compound solution is 3000 nM, the reaction was triggered and incubated 60 minutes at 25° C. 10 μL ADP-Glo agent(Promega, V9102) was added to each well, centrifuged at 1000 rpm for 1 minute, incubated 15 minutes at 25° C., then 20 μL kinase detection reagent was added to each well, centrifuged at 1000 rpm for 1 minute. RLU (relative luminescence units) was read by Envision Multimode Plate Reader, the value of RLU was used to characterize the degree of reaction between enzyme and substrate, IC50 values were calculated by XLfit 5.3.1 nonlinear regression equation.

[2] = tested on: Hs746T Xenograft Model; assay: In vivo antitumor activity, Hs746T Xenograft Model; set-up: species or system BALB/c nude mice; details: for Tumor volume: 30 mg/kg intragastrically twice a day
Excerpt: BALB/c nude mice provided by Shanghai Sipur-Bika Experimental Animal Co., Ltd: SPF grade animals, 6-8 weeks old, weighing 18-23 grams; gender: female; number: 18 mice in the group. • Antibiotic(penicillin, streptomycin): (Gibco, 15240-062). • Administration in solvent control group: Aqueous solution containing 0.5% HPMC and 0.4% Tween 80.
In order to prepare a Hs746T Xenograft Model, BALB/c Nude mice were inoculated subcutaneously with Hs746T cells (harbor an MET exon 14 skipping mutation, provided by ATCC (American Type Cultural Collection)). […] Test compounds were administered intragastrically starting from group date, twice a day for 18 days. Safety evaluation was performed based on animal weight changes and death, and efficacy evaluation was performed based on relative tumor inhibition rate (TGI %).
Human gastric cancer Hs746T cells were cultured single layer in vitro using DMEM medium containing […] and 1% antibiotic solution, and incubated in a 5% CO2, 37° C. incubator. The cells were subcultured traditionally twice a week. The cells were harvested when the confluence reached 80%-90% and the number of cells reaches the required level, and then the cells were counted and seeded.
3. Tumor Measurement and Experimental Indicators Tumor diameters were measured twice a week with vernier calipers. The formula for calculating tumor volume was: V=0.5a×b2, where a and b are the long and short diameters of the tumor, respectively.
After the experiment, the tumor weight will be measured and TGI (%) will be calculated to reflect the rate of tumor growth inhibition. Calculation of TGI(%):TGI (%)=[1−(Average tumor volume at the end of administration in a certain treatment group−Average tumor volume at the beginning of administration in this treatment group)/(Average tumor volume at the end of treatment in the solvent control group−Average tumor volume at the beginning of treatment in the solvent control group)]×100%.

[3] = tested on: Hs746T cells (harbor an MET exon 14 skipping mutation); assay: Cell proliferation inhibitory activity (CellTiter-Glo); type: cell-based; details: Homo sapiens, 168 hours incubation, CTG
Description: • 1). Cells in logarithmic growth phase were harvested and counted using cell counter. Trypan blue exclusion test was used to measure the cell viability to make sure the cell viability is at least 90%.
2). Adjust cell concentration, 180 μL cell suspension was added to each well of the 96-well plate at a density of 1200 cells/well.
3). The 96-well plate was incubated overnight under 5% CO2 and 95% humidity conditions at 37° C.
• 1). 20 μL PBS was added to each well of the seeded 96-well plate. • 2). CTG agent was melted and the cell plate was equilibrated to room temperature for 30 minutes. • 3). 100 μL CTG solution was added to each well. • 4). The plate was placed on an orbital shaker for 5 minutes to lyse the cells. • 5). The plate was placed at room temperature for 20 minutes to stabilize the luminescent signal. • 6). TO luminescence value (Lum) was recorded.
• 1). CTG agent was melted and the cell plate was equilibrated to room temperature for 30 minutes. • 2). 100 μL CTG solution was added to each well. • 3). The plate was placed on an orbital shaker for 5 minutes to lyse the cells. • 4). […] Endpoint luminescence value (Lum) was recorded.
The data were analyzed using GraphPad Prism 7.0, in order to calculate IC50, a dose-response curve was fitted using nonlinear regression model with a sigmoidal dose response. […]

[4] = tested on: stage IIIB/IV NSCLC carrying a MET exon 14 skipping mutation; assay: Clinical study in NSCLC patients carrying a MET exon 14 skipping mutation; type: in vivo, human; details: 225 mg orally once a day
Excerpt: Inclusion Criteria: Male or female adults, aged >18 years; Patients had newly diagnosed histologically/cytologically confirmed stage IIIB/IV. NSCLC; Patients carrying a MET exon 14 skipping mutation; EGFR/ALK wild type; at least one measurable lesion.

T1 sequence (P08581 with tags, fused parts or gaps DEL963-1009 limits assumed): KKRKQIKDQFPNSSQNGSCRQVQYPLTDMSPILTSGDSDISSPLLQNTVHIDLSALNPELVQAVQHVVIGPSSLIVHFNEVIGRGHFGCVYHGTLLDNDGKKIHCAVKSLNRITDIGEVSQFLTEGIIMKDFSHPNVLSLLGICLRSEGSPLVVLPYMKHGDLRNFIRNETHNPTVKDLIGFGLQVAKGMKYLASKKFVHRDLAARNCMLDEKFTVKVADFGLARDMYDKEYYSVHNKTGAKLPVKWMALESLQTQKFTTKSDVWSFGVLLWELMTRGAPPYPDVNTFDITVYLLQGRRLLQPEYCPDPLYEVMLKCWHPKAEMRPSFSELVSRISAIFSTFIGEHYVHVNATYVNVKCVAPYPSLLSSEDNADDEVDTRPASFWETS

**Q.** For `C[C@@H]1CN(C(=O)c2ccc(NC(=O)c3cc(O[C@H](C)c4c(Cl)ccc(F)c4Cl)c(N)nn3)cc2)C[C@H](C)N1` [Ensartinib, ensartinib], which IC50 [1] is on record?
**A.** 7.6 nM

**Q.** And the “Tumor growth in tumor-bearing mice (in words)” value ([2]; 30 mg/kg intragastrically twice a day for 18 days)?
**A.** obvious tumor regression was observed

**Q.** And the Tumor volume ([2]; Day 0 (start of dosing))?
**A.** 128 ± 10 mm^3

**Q.** What about the Tumor volume ([2]; Day 3) of the same compound?
**A.** 109 ± 8 mm^3

**Q.** And the Tumor volume ([2]; Day 7)?
**A.** 101 ± 8 mm^3

**Q.** And the Tumor volume ([2]; Day 10)?
**A.** 74 ± 9 mm^3

**Q.** What about the Tumor volume ([2]; Day 14) of the same compound?
**A.** 49 ± 8 mm^3

**Q.** What about the Tumor volume ([2]; Day 17) of the same compound?
**A.** 29 ± 15 mm^3

**Q.** What about the IC50 [3] of the same compound?
**A.** 31 nM

**Q.** And the “ORR (objective response rate)” value ([4]; 12/17 patients)?
**A.** 71%

**Q.** What about the “DCR (disease control rate)” value ([4]; 16/17 patients) of the same compound?
**A.** 94%

**Q.** What about the “average tumor shrinkage rate” value ([4]; 17 patients) of the same compound?
**A.** −37.7%

**Q.** And the “CR (complete response)” value ([4]; among 17 patients)?
**A.** 1 case

**Q.** What about the “PR (partial response)” value ([4]; among 17 patients) of the same compound?
**A.** 11 cases
